Source: US7105492B2, “Camptothecin derivatives having antitumor activity” (priority 1999, dated 2006)
Values joined by “and” are separate entries in the source; they are usually repeats but may differ in a detail not shown here. Equal values may be shown once.

Experiments:
[1] = target: T1, topoisomerase i (Homo sapiens, UniProt P11387); assay: Persistence of topoisomerase I-mediated DNA cleavage after addition of 0.6 M NaCl; assay type: biochemical; settings: for Reversibility / persistence of the DNA cleavages (in words): after sodium chloride (0.6 M), about 10 minutes; for PERSISTENCE (%) of DNA cleavage on selected sites: drug 10 μm, 20 minutes incubation, then sodium chloride (0.6 M), examined after about 10 minutes
T1 sequence (P11387 1-765): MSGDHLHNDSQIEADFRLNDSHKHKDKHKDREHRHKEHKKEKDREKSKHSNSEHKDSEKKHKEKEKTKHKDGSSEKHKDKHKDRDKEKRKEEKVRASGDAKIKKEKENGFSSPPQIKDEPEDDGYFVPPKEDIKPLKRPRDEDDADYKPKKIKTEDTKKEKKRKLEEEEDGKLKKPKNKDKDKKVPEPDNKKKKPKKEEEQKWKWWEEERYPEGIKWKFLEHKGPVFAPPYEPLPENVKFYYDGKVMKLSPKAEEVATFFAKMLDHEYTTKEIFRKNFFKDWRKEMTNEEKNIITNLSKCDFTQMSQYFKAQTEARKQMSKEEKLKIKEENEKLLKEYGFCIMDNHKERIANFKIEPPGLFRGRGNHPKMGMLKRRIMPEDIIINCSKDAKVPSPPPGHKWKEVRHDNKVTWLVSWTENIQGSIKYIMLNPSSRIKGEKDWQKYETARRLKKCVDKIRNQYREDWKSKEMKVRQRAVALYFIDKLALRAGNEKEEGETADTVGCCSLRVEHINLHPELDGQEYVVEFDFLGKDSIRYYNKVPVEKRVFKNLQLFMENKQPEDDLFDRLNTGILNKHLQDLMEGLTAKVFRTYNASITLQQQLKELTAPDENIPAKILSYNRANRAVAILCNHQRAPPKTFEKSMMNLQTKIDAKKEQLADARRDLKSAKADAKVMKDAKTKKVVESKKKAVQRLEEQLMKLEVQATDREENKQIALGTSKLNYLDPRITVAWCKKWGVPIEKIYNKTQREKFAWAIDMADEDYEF
Experimental: An important drawback of conventional camptothecins is the reversibility of the their bond in the ternary complex (drug-DNA-enzyme).
After 20 minutes of incubation of the drug in the reaction mixture containing labelled DNA and the purified enzyme, sodium chloride (0.6 M) was added with the scope of assisting the dissociation of the ternary complex.

[2] = cited from earlier work; for crossing of the hematoencephalic barrier (in words): in vivo
[3] = tested on: NCI H460 lung non-small cell carcinoma; assay: Antiproliferative activity test (cytotoxic activity) on NCI H460 cells; assay type: cell-based, human; settings: H-460
Experimental: Cytotoxic activity of the compounds of the present invention was assayed in cell systems of human tumour cells, using the antiproliferative activity test as a method of evaluation of the cytotoxic potential.
The cell line used is a lung non-small cell carcinoma that belongs to non-small cells hystotype named NCI H460.

[4] = Water solubility (remark in Table 4); assay type: physicochemical
[5] = tested on: MKN-28 human gastric carcinoma; assay: ST 1737 per os in athymic nude mice bearing s.c. MKN-28 human gastric carcinoma; assay type: in vivo; settings: q4d × 4; for TVI % (tumor volume inhibition % in treated over control tumors): at 11–12 day after last treatment
[6] = tested on: lung carcinoma NCI H460; assay: Antitumoral activity in nude mice implanted s.c. with NCI H460 tumour fragments (Table 1); settings: q4d × 4; for Efficacy (TVI %): evaluated 5–10 days after the last treatment
Experimental: For the in vivo studies, the solubilization was carried out in 10% DMSO in bidistilled water, being impossible the solubilization in saline, and the administration for the oral route was carried out at a volume of 10 ml/kg.
Atimic nu/nu Swiss mice (Charles River, Calco, Italia), ageing 10–12 weeks were used. The animals were maintained in laminar flow rooms, according to the guidelines of the United Kingdom Co-ordination Committee Cancer Research. Experimental protocols were approved by the Ethical Committee for animal experimentation of Istituto Nazionale per lo Studio e Cura dei Tumori.
Tumour fragments of about 2×2×2 mm coming from mice to which were inoculated s.c. 10^6 cells NCI H460/topo, were implanted s.c. bilaterally in groups of 5 mice each.
Twice a week, using a Vernier caliper, the width, minimum diameter (l), length and maximum diameter (L) of the tumors were measured, in mm. The tumour volume (mm^3) was calculated according to the formula I^2×L/2. Efficacy of the molecule was evaluated as TVI percent of the treated group versus the control group according to the formula TVI%=100−(T/C×100), wherein T is the mean value of the tumour volume of the treated group and C of control one.

[7] = tested on: U87 glioblastoma; assay: Antitumor activity on tumor models: U87; assay type: in vivo, mice; settings: U87, 15 mg/kg
[8] = tested on: A2780/Dx ovarian ca; assay: Antitumor activity on tumor models: A2780/Dx; assay type: in vivo, mice; settings: A2780/Dx, 15 mg/kg
Excerpt: (§1) This broad spectrum of anticancer activity was confirmed in mice transplanted with human tumor xenografts, including NSCLC (H460, A549), prostate ca. (JCA-1), glioblastoma (GBM/7), gastric ca. (MKN28), osteosarcoma (U2OS), ovarian ca. (A2780/Dx, A2780/DDP) and colon (HT29, CoBA) carcinomas as well as in murine lung cancer (M109) and leukaemia model (L1210).
The high cytotoxic potency of the compounds of the present invention, herein represented in an exemplary way with one of the preferrred compounds, CPT 184, is also reflected by the potent antitumor activity. […] Moreover, the compounds of the present invention, in particular the CPT 184, were able to induce 100% CR in the A2780/DX tumor characterized by a MDR-phenotype.

[9] = tested on: L1210 = murine leukemia; assay: Antitumor activity on tumor models: L1210 leukemia, increase in life span; assay type: in vivo, mice; settings: L1210, 15 mg/kg
Excerpt: as §1

[10] = tested on: IGROV-1 ovarian ca; assay: Antitumor activity on tumor models: IGROV-1; assay type: in vivo, mice; settings: IGROV-1, 15 mg/kg
[11] = tested on: HT29 colon ca; assay: Antitumor activity on tumor models: HT29; assay type: in vivo, mice; settings: HT29, 15 mg/kg
Excerpt: as §1

[12] = tested on: GBM/7 glioblastoma; assay: Antitumor activity on tumor models: GBM/7; assay type: in vivo, mice; settings: GBM/7, 15 mg/kg
Excerpt: as §1

[13] = tested on: CoBA colon ca; assay: Antitumor activity on tumor models: CoBA; assay type: in vivo, mice; settings: 15 mg/kg
Excerpt: as §1

[14] = tested on: A2780 ovarian ca; assay: Antitumor activity on tumor models: A2780; assay type: in vivo, mice; settings: A2780, 15 mg/kg
Excerpt: as §1

[15] = tested on: A2780/DDP ovarian ca; assay: Antitumor activity on tumor models: A2780/DDP; assay type: in vivo, mice; settings: 15 mg/kg
Excerpt: as §1

[16] = tested on: DU145 prostate ca; assay: Antitumor activity on tumor models: DU145; assay type: in vivo, mice; settings: DU145, 15 mg/kg
[17] = tested on: H460 = NSCLC; assay: Antitumor activity on tumor models: H460; assay type: in vivo, mice; settings: H460, 15 mg/kg
Excerpt: as §1

[18] = tested on: JCA-1 prostate ca; assay: Antitumor activity on tumor models: JCA-1; assay type: in vivo, mice; settings: JCA-1, 15 mg/kg
Excerpt: as §1

CC[C@@]1(O)C(=O)OCc2c1cc1n(c2=O)Cc2cc3ccccc3nc2-1 [Camptothecin]
Reversibility / persistence of the DNA cleavages (in words) [1]: almost complete reversibility of the cleavages
PERSISTENCE (%) of DNA cleavage on selected sites [1]: 16%
crossing of the hematoencephalic barrier (in words) [2]: does not cross hematoencephalic barrier in significant amount

CC[C@@]1(O)C(=O)OCc2c1cc1n(c2=O)Cc2c-1nc1ccccc1c2C=Nc1ccccc1SSc1ccccc1N [ST 1737, 7–2-(2-aminophenyldithio)phenyliminomethylcamptothecin]
IC50 [3]: 0.017 µM
water solubility (in words) [4]: (water soluble)
Tox (Dead/treated mice) ([5]; 4 mg/kg per os): 0/4
TVI % (tumor volume inhibition % in treated over control tumors) ([5]; 4 mg/kg per os): 69%
Tox (Dead/treated mice) ([5]; 7 mg/kg per os): 0/4
TVI % (tumor volume inhibition % in treated over control tumors) ([5]; 7 mg/kg per os): 56%
BWL % (body weight loss % induced by drug treatment) ([5]; 12 mg/kg per os): 4%
Tox (Dead/treated mice) ([5]; 12 mg/kg per os): 0/4
TVI % (tumor volume inhibition % in treated over control tumors) ([5]; 12 mg/kg per os): 68%

CC[C@@]1(O)C(=O)OCc2c1cc1n(c2=O)Cc2cc3c(CN(C)C)c(O)ccc3nc2-1 [TPT, Topotecan, reference compound]
Toxicity Lethality ([6]; 10 mg/kg p.o.): 0/5
Efficacy (TVI %) ([6]; 10 mg/kg p.o.): 64%
Toxicity Lethality ([6]; 15 mg/kg p.o.): 0/4 and 0/5
Efficacy (TVI %) ([6]; 15 mg/kg p.o.): 94% and 89%
TVI % [7]: 82%
TVI % [8]: 92%
no evidence of tumor at the end of the treatment lasting for about 10 days from the last administration [8]: (2/10*)
ILS % = percent increase in life span [9]: 39%
TVI % [10]: 89%
TVI % [11]: 65%
Reversibility / persistence of the DNA cleavages (in words) [1]: almost complete reversibility of the cleavages
PERSISTENCE (%) of DNA cleavage on selected sites [1]: 16%
TVI % [12]: 96%
no evidence of tumor at the end of the treatment lasting for about 10 days from the last administration [12]: (1/10*)
TVI % [13]: 85%
in the cerebrospinal fluid with respect to plasma ([2]; 10 min after infusion): 30%
lactone form hydrolysed to open ring ([2]; 30 min after infusion): 50%
crossing of the hematoencephalic barrier (in words) [2]: crosses hematoencephalic barrier
TVI % [14]: 96%
TVI % [15]: 92%
TVI % [16]: 77%
TVI % [17]: 98%
TVI % [18]: 95%
